Our source for the IC50 values is US9708308B2, “Factor IXa inhibitors” (Merck Sharp & Dohme Corp., priority 2012, dated 2017).

The target of the assay is Factor IXa (Homo sapiens, UniProt P00740). Nature of the assay: Determination of inhibitory activity against Factor IXa (cleavage of fluorescent peptide substrate). It is filed as biochemical. The conditions noted are these: cleavage of fluorescent peptide CH3SO2-D-CHG-Gly-Arg-AFC, release of AFC; read-out: FIXa IC50. The source says:
• (R)—N-(3-aminobenzo[d]isoxazol-6-yl)-2-hydroxy-2-((R)-4-(1-(6-methoxypyridazin-4-yl)-1H-pyrazol-3-yl)-6,6-dimethyl-3-oxomorpholin-2-yl)acetamide. Determination of Inhibitory Activity Against Factor IXa
Formation of a clot to stem bleeding at a site of blood vessel injury involves the coordinated activity of a group of plasma proteins that initiate and propagate fibrin formation and subsequently protect fibrin from premature degradation. Factor IX is a key component of the plasma system that forms a fibrin clot at a site of vascular injury. The activity of Factor IXa is measured by monitoring the cleavage of the fluorescent peptide, CH3SO2-D-CHG-Gly-Arg-AFC.AcOH (“CHG” is cyclohexyl-glycine and “AFC” is trifluoro aminomethyl coumarin). Factor IXa cleaves the amide bond between Arg and AFC, thereby releasing the AFC fluorophore. The free AFC can be detected with a fluorescence detector at an excitation wavelength of 405 nm and emission wavelength of 510 nm.

Chain of Factor IXa (P00740 227-461 limits assumed): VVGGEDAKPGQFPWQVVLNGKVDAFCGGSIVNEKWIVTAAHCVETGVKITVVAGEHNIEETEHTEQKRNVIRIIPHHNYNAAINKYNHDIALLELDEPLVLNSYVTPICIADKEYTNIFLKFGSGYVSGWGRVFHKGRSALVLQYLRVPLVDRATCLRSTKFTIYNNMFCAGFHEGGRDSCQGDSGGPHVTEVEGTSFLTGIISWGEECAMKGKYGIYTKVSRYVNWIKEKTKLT
Chain of Factor IXa (P00740 47-191 partner limits assumed): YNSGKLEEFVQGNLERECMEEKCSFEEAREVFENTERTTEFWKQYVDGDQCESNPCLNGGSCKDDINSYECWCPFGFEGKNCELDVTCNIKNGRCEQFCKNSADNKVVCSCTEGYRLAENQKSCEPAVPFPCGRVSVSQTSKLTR

As usually defined, the IC50 is the concentration needed to halve the response being measured. Regarding `COC(=O)c1ccc(-n2ccc(N3CCO[C@](C)([C@@H](O)C(=O)Nc4ccc5c(N)noc5c4)C3=O)n2)cc1` [Example 81, methyl 4-(3-((R)-2-((R)-2-((3-aminobenzo[d]isoxazol-6-yl)amino)-1-hydroxy-2-oxoethyl)-2-methyl-3-oxomorpholino)-1H-pyrazol-1-yl)benzoate], the half-maximal inhibitory concentration (IC50) amounted to 418 nM.
With `COc1cc(-n2ccc(N3CCO[C@H]([C@@](C)(O)C(=O)Nc4ccc5c(N)noc5c4)C3=O)n2)ccn1` [Example 1, (2R)—N-(3-Amino-1,2-benzoxazol-6-yl)-2-hydroxy-2-[(2R)-4-[1-(2-methoxy-4-pyridyl)pyrazol-3-yl]-3-oxo-morpholin-2-yl]propanamide], the IC50 stood at 160 nM.
Under `Cc1cc(N2CCO[C@H]([C@@](C)(O)C(=O)Nc3ccc4c(N)noc4c3)C2=O)nn1-c1ccnc(C(F)(F)F)n1` [Example 59, (R)—N-(3-aminobenzo[d]isoxazol-6-yl)-2-hydroxy-2-((R)-4-(5-methyl-1-(2-(trifluoromethyl)pyrimidin-4-yl)-1H-pyrazol-3-yl)-3-oxomorpholin-2-yl)propanamide] stands 72.8 nM; under `C[C@](O)(C(=O)Nc1ccc2c(N)noc2c1)[C@H]1OCCN(c2ccn(-c3cnnc(OC(CO)CCl)c3)n2)C1=O` (stereo partly drawn) [Example 6, (2R)—N-(3-Aminobenzo[d]isoxazol-6-yl)-2-((2R)-4-(1-(6-((1-chloro-3-hydroxypropan-2-yl)oxy)pyridazin-4-yl)-1H-pyrazol-3-yl)-3-oxomorpholin-2-yl)-2-hydroxypropanamide], 975 nM; under `COc1cc(-n2ccc(N3CCO[C@H]([C@@](C)(O)C(=O)Nc4ccc5[nH]c(C)c(Cl)c5c4)C3=O)n2)ccn1` [Example 145, (R)—N-(3-chloro-2-methyl-1H-indol-5-yl)-2-hydroxy-2-((R)-4-(1-(2-methoxypyridin-4-yl)-1H-pyrazol-3-yl)-3-oxomorpholin-2-yl)propanamide], 1100 nM.
As for `C[C@](O)(C(=O)Nc1ccc2c(N)noc2c1)[C@H]1OCCN(c2ccc3cc(C(F)(F)F)ccc3n2)C1=O` [Example 68, (R)—N-(3-aminobenzo[d]isoxazol-6-yl)-2-hydroxy-2-((R)-3-oxo-4-(6-(trifluoromethyl)quinolin-2-yl)morpholin-2-yl)propanamide], the figure is 574 nM.
Under `C[C@]1([C@@H](O)C(=O)Nc2ccc3c(N)noc3c2)OCCN(c2ccc3ccncc3n2)C1=O` [Example 117, (R)—N-(3-aminobenzo[d]isoxazol-6-yl)-2-hydroxy-2-((R)-2-methyl-4-(1,7-naphthyridin-2-yl)-3-oxomorpholin-2-yl)acetamide] stands 544 nM; under `C[C@]1([C@@H](O)C(=O)Nc2ccc3c(N)noc3c2)OCCN(c2ccn(-c3ccc(Cl)cc3)n2)C1=O` [Example 83, (R)—N-(3-aminobenzo[d]isoxazol-6-yl)-2-((R)-4-(1-(4-chlorophenyl)-1H-pyrazol-3-yl)-2-methyl-3-oxomorpholin-2-yl)-2-hydroxyacetamide], 352 nM; under `Cc1cc(N2CCO[C@](C)([C@@H](O)C(=O)Nc3ccc4c(N)noc4c3)C2=O)nn1-c1ccc(=O)n(C(F)F)c1` [Example 77, (R)—N-(3-Aminobenzo[d]isoxazol-6-yl)-2-((R)-4-(1-(1-(difluoromethyl)-6-oxo-1,6-dihydropyridin-3-yl)-5-methyl-1H-pyrazol-3-yl)-2-methyl-3-oxomorpholin-2-yl)-2-hydroxyacetamide], 26.5 nM.
As to `C[C@]1([C@@H](O)C(=O)Nc2ccc3c(N)noc3c2)OCCN(c2ccn(-c3cncc(C#N)c3)n2)C1=O` [Example 88, (R)—N-(3-aminobenzo[d]isoxazol-6-yl)-2-((R)-4-(1-(5-cyanopyridin-3-yl)-1H-pyrazol-3-yl)-2-methyl-3-oxomorpholin-2-yl)-2-hydroxyacetamide], the IC50 came out at 950 nM.
Under `COc1cc(-n2ccc(N3CCO[C@](C)([C@@H](O)C(=O)Nc4ccc5c(N)noc5c4)C3=O)n2)ccn1` [Example 92, (R)—N-(3-aminobenzo[d]isoxazol-6-yl)-2-hydroxy-2-((R)-4-(1-(2-methoxypyridin-4-yl)-1H-pyrazol-3-yl)-2-methyl-3-oxomorpholin-2-yl)acetamide] stands 106 nM.
As for `C[C@]1([C@@H](O)C(=O)Nc2ccc3c(N)noc3c2)OCCN(c2ccn(-c3ccnc(C#N)c3)n2)C1=O` [Example 73, (R)—N-(3-Aminobenzo[d]isoxazol-6-yl)-2-((R)-4-(1-(2-cyanopyridin-4-yl)-1H-pyrazol-3-yl)-2-methyl-3-oxomorpholin-2-yl)-2-hydroxyacetamide], the figure is 66.1 nM; as for `COc1cc(-n2cc(C)c(N3CCO[C@H]([C@@](C)(O)C(=O)Nc4ccc5c(N)noc5c4)C3=O)n2)ccn1` [Example 35, (R)—N-(3-aminobenzo[d]isoxazol-6-yl)-2-hydroxy-2-((R)-4-(1-(2-methoxypyridin-4-yl)-4-methyl-1H-pyrazol-3-yl)-3-oxomorpholin-2-yl)propanamide], 694 nM; as for `C[C@@H]1CN(c2ccn(-c3ccnc(C(F)(F)F)c3)n2)C(=O)[C@@H]([C@@H](O)C(=O)Nc2ccc3c(N)noc3c2)O1` [Example 170, (R)—N-(3-aminobenzo[d]isoxazol-6-yl)-2-hydroxy-2-((2R,6R)-6-methyl-3-oxo-4-(1-(2-(trifluoromethyl)pyridin-4-yl)-1H-pyrazol-3-yl)morpholin-2-yl)acetamide], 2.42 nM.
As for `C[C@]1([C@@H](O)C(=O)Nc2ccc3c(N)noc3c2)OCCN(c2ccn(-c3ccc(C(=O)O)cc3)n2)C1=O` [Example 82, 4-(3-((R)-2-((R)-2-((3-aminobenzo[d]isoxazol-6-yl)amino)-1-hydroxy-2-oxoethyl)-2-methyl-3-oxomorpholino)-1H-pyrazol-1-yl)benzoic acid], the figure is 32.8 nM; as for `C[C@]1([C@@H](O)C(=O)Nc2ccc3c(N)noc3c2)OCCN(c2nn(-c3ccc(=O)n(C(F)F)c3)cc2F)C1=O` [Example 78, (R)—N-(3-Aminobenzo[d]isoxazol-6-yl)-2-((R)-4-(1-(1-(difluoromethyl)-6-oxo-1,6-dihydropyridin-3-yl)-4-fluoro-1H-pyrazol-3-yl)-2-methyl-3-oxomorpholin-2-yl)-2-hydroxyacetamide], 25.6 nM; as for `C[C@](O)(C(=O)Nc1ccc2c(N)noc2c1)[C@H]1OCCN(c2ccn(-c3ccc(=O)n(C(F)F)c3)n2)C1=O` [Example 7, (R)—N-(3-Aminobenzo[d]isoxazol-6-yl)-2-((R)-4-(1-(1-(difluoromethyl)-6-oxo-1,6-dihydropyridin-3-yl)-1H-pyrazol-3-yl)-3-oxomorpholin-2-yl)-2-hydroxypropanamide], 18.1 nM.
As for `COc1cc(-n2ccc(N3CCO[C@H]([C@@](C)(O)C(=O)Nc4ccc5c(N)noc5c4)C3=O)n2)c(C(F)(F)F)cn1` [Example 29, (R)—N-(3-aminobenzo[d]isoxazol-6-yl)-2-hydroxy-2-((R)-4-(1-(2-methoxy-5-(trifluoromethyl)pyridin-4-yl)-1H-pyrazol-3-yl)-3-oxomorpholin-2-yl)propanamide], the IC50 stood at 106 nM.
As for `Cc1cc(-n2ccc(N3CCO[C@H]([C@@](C)(O)C(=O)Nc4cc(F)c5c(N)noc5c4)C3=O)n2)ccn1` [Example 130, (R)—N-(3-amino-4-fluorobenzo[d]isoxazol-6-yl)-2-hydroxy-2-((R)-4-(1-(2-methylpyridin-4-yl)-1H-pyrazol-3-yl)-3-oxomorpholin-2-yl)propanamide], the figure is 211 nM; as for `CCOc1cc(-n2ccc(N3CCO[C@H]([C@@](C)(O)C(=O)Nc4ccc5c(N)noc5c4)C3=O)n2)cnn1` [Example 4], 23.2 nM; as for `C[C@H]1CN(c2ccn(-c3ccncc3)n2)C(=O)[C@@H]([C@@H](O)C(=O)Nc2ccc3c(N)noc3c2)O1` [Example 163, (R)—N-(3-aminobenzo[d]isoxazol-6-yl)-2-hydroxy-2-((2R,6S)-6-methyl-3-oxo-4-(1-(pyridin-4-yl)-1H-pyrazol-3-yl)morpholin-2-yl)acetamide], 11.3 nM.
As for `C[C@]1([C@@H](O)C(=O)Nc2ccc3c(N)noc3c2)OCCN(c2cccc(-c3cnc(C(F)(F)F)nc3)n2)C1=O` [Example 113, (R)—N-(3-aminobenzo[d]isoxazol-6-yl)-2-hydroxy-2-((R)-2-methyl-3-oxo-4-(6-(2-(trifluoromethyl)pyrimidin-5-yl)pyridin-2-yl)morpholin-2-yl)acetamide], the figure is 464 nM; as for `C[C@]1([C@@H](O)C(=O)Nc2ccc3c(N)noc3c2)OCCN(c2ccn(-c3ccncc3)n2)C1=O` [Example 89, (R)—N-(3-aminobenzo[d]isoxazol-6-yl)-2-hydroxy-2-((R)-2-methyl-3-oxo-4-(1-(pyridin-4-yl)-1H-pyrazol-3-yl)morpholin-2-yl)acetamide], 1060 nM; as for `C[C@]1([C@@H](O)C(=O)Nc2ccc3c(N)noc3c2)OCCN(c2cccc(OC3CCOCC3)n2)C1=O` [Example 108, (R)—N-(3-aminobenzo[d]isoxazol-6-yl)-2-hydroxy-2-((R)-2-methyl-3-oxo-4-(6-((tetrahydro-2H-pyran-4-yl)oxy)pyridin-2-yl)morpholin-2-yl)acetamide], 370 nM.
Under `Cc1nccc(-n2ccc(N3CCO[C@H]([C@@](C)(O)C(=O)Nc4ccc5c(N)noc5c4)C3=O)n2)n1` [Example 51, (R)—N-(3-aminobenzo[d]isoxazol-6-yl)-2-hydroxy-2-((R)-4-(1-(2-methylpyrimidin-4-yl)-1H-pyrazol-3-yl)-3-oxomorpholin-2-yl)propanamide] stands 170 nM.
